Data taken from patent US8063098B2, “GlyT1 receptor antagonists” (Hoffmann-La Roche Inc., priority 2008, dated 2011).

Target: T1, mGlyT-1b (Mus musculus, UniProt P28571)
T1 construct: host or cells: Flp-in-CHO
T1 sequence (P28571 1-651 isoform P28571-2): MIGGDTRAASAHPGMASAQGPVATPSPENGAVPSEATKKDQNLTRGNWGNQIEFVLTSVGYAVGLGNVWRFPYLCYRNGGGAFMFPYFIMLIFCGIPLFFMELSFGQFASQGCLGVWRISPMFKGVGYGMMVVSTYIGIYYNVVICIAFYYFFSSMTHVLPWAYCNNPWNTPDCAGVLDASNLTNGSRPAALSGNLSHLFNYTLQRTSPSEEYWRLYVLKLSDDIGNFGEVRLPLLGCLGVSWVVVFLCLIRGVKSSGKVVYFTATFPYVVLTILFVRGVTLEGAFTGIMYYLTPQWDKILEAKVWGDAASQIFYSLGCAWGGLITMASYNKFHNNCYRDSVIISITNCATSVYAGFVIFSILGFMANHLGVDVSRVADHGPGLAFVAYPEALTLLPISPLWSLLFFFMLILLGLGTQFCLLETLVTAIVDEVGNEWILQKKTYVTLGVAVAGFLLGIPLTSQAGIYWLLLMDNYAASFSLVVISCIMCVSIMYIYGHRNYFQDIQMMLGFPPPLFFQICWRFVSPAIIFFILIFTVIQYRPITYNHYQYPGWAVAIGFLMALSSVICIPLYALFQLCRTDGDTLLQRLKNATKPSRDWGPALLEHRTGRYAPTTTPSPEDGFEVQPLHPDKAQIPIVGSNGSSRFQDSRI
Assay: Glycine uptake inhibition assay (mGlyT-1b), [3H]-glycine uptake in Flp-in-CHO cells
Assay type: cell-based
Settings: Flp-in-CHO cells stably transfected with mGlyT1b cDNA, 20 min at 22° C. preincubation
Method: Nutrient mixture F-12 (Gibco Life-technologies), fetal bovine serum (FBS) 5%, (Gibco life technologies), Penicillin/Streptomycin 1% (Gibco life technologies), Hygromycin 0.6 mg/ml (Gibco life technologies), Glutamine 1 mM Gibco life technologies) • Uptake buffer (UB): 150 mM NaCl, 10 mM Hepes-Tris, pH 7.4, […], 2.5 mM KCl, 2.5 mM MgSO4, 10 mM (+) D-glucose. • Flp-in™-CHO (Invitrogen Cat n° R758-07) cells stably transfected with mGlyT1b cDNA. Glycine Uptake Inhibition Assay (mGlyT-1b)
On day 1 mammalian cells, (Flp-in™-CHO), transfected with mGlyT-1b cDNA, were plated at the density of 40,000 cells/well in complete F-12 medium, without hygromycin in 96-well culture plates. On day 2, the medium was aspirated and the cells were washed twice with uptake buffer (UB). The cells were then incubated for 20 min at 22° C. with either (i) no potential competitor, (ii) 10 mM non-radioactive glycine, (iii) a concentration of a potential inhibitor. A range of concentrations of the potential inhibitor was used to generate data for calculating the concentration of inhibitor resulting in 50% of the effect (e.g. IC50, the concentration of the competitor inhibiting glycine uptake of 50%). A solution was then immediately added containing [^3H]-glycine 60 nM (11-16 Ci/mmol) and 25 μM non-radioactive glycine. The plates were incubated with gentle shaking and the reaction was stopped by aspiration of the mixture and washing (three times) with ice-cold UB. The cells were lysed with scintillation liquid, shaken 3 hours and the radioactivity in the cells was counted using a scintillation counter.

IC50 [µM] | SMILES
0.0122 | COc1cc(F)cc(SC)c1C(=O)NC(c1ccccc1)C1(N2CCCC2)CCC1 (stereo not shown) [Example 11, 4-Fluoro-2-Methoxy-6-methylsulfanyl-N-[phenyl-(1-pyrrolidin-1-yl-cyclobutyl)-methyl]-benzamide]
0.0127 | O=C(NC(c1ccccc1)C1(N2CCCC2)CCC1)c1ccc(C(F)(F)F)cc1Br (stereo not shown) [Example 52, 2-Bromo-N-[phenyl-(1-pyrrolidin-1-yl-cyclobutyl)-methyl]-4-trifluoromethyl-benzamide]
0.034 | CSc1cccc(C(F)(F)F)c1C(=O)NC(c1ccccc1)C1(N2CCCC2)CCC1 (stereo not shown) [Example 13, 2-Methylsulfanyl-N-[phenyl-(1-pyrrolidin-1-yl-cyclobutyl)-methyl]-6-trifluoromethyl-benzamide]
0.0915 | COc1cc(C(F)(F)F)cc(SC)c1C(=O)NC(c1ccccc1)C1(N2CCSCC2)CCC1 (stereo not shown) [Example 66, 2-Methoxy-6-methylsulfanyl-N-[phenyl-(1-thiomorpholin-4-yl-cyclobutyl)-methyl]-4-trifluoromethyl-benzamide]
